Patent US6410686B1, “Galanin receptor 2 protein” (Bayer Corporation, priority 1996, dated 2002)
Like-named read-outs stand apart in the source and are kept apart here. Residues, ends and D or L forms follow the SMILES beside them.

Columns and labels:
Rat GalR2 [clone Y107] = biological target: T1, Rat GalR2 [clone Y107] (Rattus norvegicus, UniProt O08726); experiment: [125I]hGalanin competition binding, membranes of COS-7 cells transiently expressing rat GalR2 clone Y107
T1 construct: expressed in transfected cells; host or cells: COS-7 (monkey kidney), transient, pcDNA3 clone from a rat hypothalamus cDNA library; membranes
T1 sequence (O08726 1-372): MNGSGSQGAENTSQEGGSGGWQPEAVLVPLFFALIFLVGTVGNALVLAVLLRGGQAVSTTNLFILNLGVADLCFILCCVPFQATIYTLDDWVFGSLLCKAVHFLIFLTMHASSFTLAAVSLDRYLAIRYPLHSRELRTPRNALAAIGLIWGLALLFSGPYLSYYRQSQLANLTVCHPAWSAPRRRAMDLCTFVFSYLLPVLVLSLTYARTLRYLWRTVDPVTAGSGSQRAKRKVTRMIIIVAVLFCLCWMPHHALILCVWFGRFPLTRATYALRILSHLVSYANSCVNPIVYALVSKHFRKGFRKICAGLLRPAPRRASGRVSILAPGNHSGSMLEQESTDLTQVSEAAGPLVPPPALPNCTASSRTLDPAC
Experimental: (§1) 15 μg of DNA and 90 μl of lipofectamine were added to each flask. Media was replaced 24 hours post transfection, and membranes were harvested 24 hours later.
(§2) The media was removed from each flask of transfected cells, and the cells were washed twice with 20 ml ice-cold phosphate buffered saline. The cells were scraped from the flask in 5 ml of Tris buffer (20 mM Tris-HCl, 5 mM EDTA, pH 7.7), and then transferred to a centrifuge tube. Each flask was rinsed with an additional 5 ml of Tris buffer, and combined in the centrifuge tube. The cells were homogenized in a Polytron PT-3000 (Brinkman Instruments, Mill Valley, N.Y.) for 2×10 seconds ([…], 7000-8000 rpm) and centrifuged at 20,000×g for 30 minutes at 4° C. The pellet was resuspended in fresh Tris buffer, and centrifuged again at 20,000×g for 30 minutes at 4° C. Protein concentration was measured using the Bio-Rad kit according to the standard manufacturer's protocol (Bio-Rad Laboratories (Hercules, Calif.) 500-0001) using bovine IgG as the standard.
(§3) The binding assays were performed on 96-well plates (GF/C Millipore Corp., Bedford, MA PN MAFC NOB 50) pretreated with 0.3% polyethylenimine (PEI) for at least 3 hours prior to use. The PEI was aspirated from the plates on a vacuum manifold, and the wells were rinsed with 200 μl of ice-cold binding buffer (25 mM Tris, 10 mM MgCl2, 0.1% BSA, pH 7.4) immediately before samples were added to the wells. […] Samples were incubated for 90 minutes at room temperature with constant shaking. To terminate the reaction, samples were aspirated on a vacuum manifold and rinsed with 3×200 μl ice-cold buffer. Samples were then counted on a gamma counter to quantitate the amount of radioactivity. […] (West Haven, Conn.). All other peptides were purchased from either Peninsula (Belmont, Calif.) or Bachem (Torrance, Calif.).
(§4) Peptide species are indicated with the following prefixes: r≡rat, h≡human.

Rat GalR1 [cloned] = biological target: T2, Rat GalR1 [cloned] (Rattus norvegicus, UniProt Q62805); experiment: [125I]hGalanin competition binding, membranes of COS-7 cells transiently expressing rat GalR1
T2 construct: expressed in transfected cells; host or cells: COS-7 (monkey kidney), transient; membranes
T2 sequence (Q62805 1-346): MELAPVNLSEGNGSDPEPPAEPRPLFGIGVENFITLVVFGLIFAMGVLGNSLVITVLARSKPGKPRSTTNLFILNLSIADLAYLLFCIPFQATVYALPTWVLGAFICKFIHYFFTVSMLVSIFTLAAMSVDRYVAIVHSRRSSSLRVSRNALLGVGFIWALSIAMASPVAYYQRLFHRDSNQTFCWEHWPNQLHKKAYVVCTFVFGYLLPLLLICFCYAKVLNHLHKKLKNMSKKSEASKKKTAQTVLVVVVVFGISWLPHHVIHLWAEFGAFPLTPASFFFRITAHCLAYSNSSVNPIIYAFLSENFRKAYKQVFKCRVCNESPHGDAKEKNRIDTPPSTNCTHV
Experimental: as §1, §2, §3, §4

[1] = 50 pM [125I]hGalanin, COS-7 membranes, 90 minutes at room temperature, average (individual values) or single experiment, read-out: Rat GalR2 [clone Y107] IC50 value
[2] = 50 pM [125I]hGalanin, COS-7 membranes, 90 minutes at room temperature, average ± SEM, or average (individual values), read-out: Rat GalR1 [cloned] IC50 value

| SMILES | IC50 (Rat GalR2 [clone Y107]; [1]) [nM] | IC50 (Rat GalR1 [cloned]; [2]) [nM] | other results |
| --- | --- | --- | --- |
| CC(C)C[C@H](NC(=O)CNC(=O)[C@H](CC(N)=O)NC(=O)[C@H](CCCCN)NC(=O)[C@H](CC(=O)O)NC(=O)[C@H](CO)NC(=O)[C@H](Cc1ccccc1)NC(=O)[C@H](CO)NC(=O)[C@H](CCCNC(=N)N)NC(=O)[C@H](Cc1c[nH]cn1)NC(=O)[C@H](CC(N)=O)NC(=O)CNC(=O)[C@@H](NC(=O)[C@H](C)NC(=O)[C@H](Cc1c[nH]cn1)NC(=O)[C@@H]1CCCN1C(=O)CNC(=O)[C@H](CC(C)C)NC(=O)[C@H](CC(C)C)NC(=O)[C@H](Cc1ccc(O)cc1)NC(=O)CNC(=O)[C@H](C)NC(=O)[C@H](CO)NC(=O)[C@H](CC(N)=O)NC(=O)[C@H](CC(C)C)NC(=O)[C@@H](N)[C@@H](C)O)C(C)C)C(=O)N[C@H](C(=O)N[C@@H](CO)C(=O)O)[C@@H](C)O [h(3-30)galanin] (H-TLNSAGYLLGPHAVGNHRSFSDKNGLTS-OH; N-terminus and C-terminus assumed) | – | – | IC50 (Rat GalR2 [clone Y107]; read-out: Rat GalR2 [clone Y107] IC50 value, 50 pM [125I]hGalanin, COS-7 membranes, 90 minutes at room temperature, average (individual values) or single experiment): > 1000 nM; IC50 (Rat GalR1 [cloned]; read-out: Rat GalR1 [cloned] IC50 value, 50 pM [125I]hGalanin, COS-7 membranes, 90 minutes at room temperature, average ± SEM, or average (individual values)): > 1000 nM |
| CC[C@H](C)[C@H](NC(=O)[C@H](C)NC(=O)[C@H](Cc1c[nH]cn1)NC(=O)[C@@H]1CCCN1C(=O)CNC(=O)[C@H](CC(C)C)NC(=O)[C@H](CC(C)C)NC(=O)[C@@H](N)Cc1ccc(O)cc1)C(=O)N[C@@H](CC(=O)O)C(=O)N[C@@H](CC(N)=O)C(=O)N[C@@H](Cc1c[nH]cn1)C(=O)N[C@@H](CCCNC(=N)N)C(=O)N[C@@H](CO)C(=O)N[C@@H](Cc1ccccc1)C(=O)N[C@@H](CO)C(=O)N[C@@H](CC(=O)O)C(=O)N[C@@H](CCCCN)C(=O)N[C@@H](Cc1c[nH]cn1)C(=O)NCC(=O)N[C@@H](CC(C)C)C(=O)N[C@H](C(N)=O)[C@@H](C)O [r(9-29)galanin] (H-YLLGPHAIDNHRSFSDKHGLT-NH2; N-terminus and C-terminus assumed) | > 1000 | > 1000 | – |
| CC[C@H](C)[C@H](NC(=O)[C@H](C)NC(=O)[C@H](Cc1c[nH]cn1)NC(=O)[C@@H]1CCCN1C(=O)CNC(=O)[C@H](CC(C)C)NC(=O)[C@H](CC(C)C)NC(=O)[C@H](Cc1ccc(O)cc1)NC(=O)CNC(=O)[C@H](C)NC(=O)[C@H](CO)NC(=O)[C@H](CC(N)=O)NC(=O)[C@H](CC(C)C)NC(=O)[C@@H](N)[C@@H](C)O)C(=O)N[C@@H](CC(=O)O)C(=O)N[C@@H](CC(N)=O)C(=O)N[C@@H](Cc1c[nH]cn1)C(=O)N[C@@H](CCCNC(=N)N)C(=O)N[C@@H](CO)C(=O)N[C@@H](Cc1ccccc1)C(=O)N[C@@H](CO)C(=O)N[C@@H](CC(=O)O)C(=O)N[C@@H](CCCCN)C(=O)N[C@@H](Cc1c[nH]cn1)C(=O)NCC(=O)N[C@@H](CC(C)C)C(=O)N[C@H](C(N)=O)[C@@H](C)O [r(3-29)galanin] | – | – | IC50 (Rat GalR2 [clone Y107]): > 1000 nM; IC50 (Rat GalR1 [cloned]): > 1000 nM |
| CC[C@H](C)[C@H](NC(=O)[C@H](C)NC(=O)[C@H](Cc1c[nH]cn1)NC(=O)[C@@H]1CCCN1C(=O)CNC(=O)[C@H](CC(C)C)NC(=O)[C@H](CC(C)C)NC(=O)[C@H](Cc1ccc(O)cc1)NC(=O)CNC(=O)[C@H](C)NC(=O)[C@H](CO)NC(=O)[C@@H](N)CC(N)=O)C(=O)N[C@@H](CC(=O)O)C(=O)N[C@@H](CC(N)=O)C(=O)N[C@@H](Cc1c[nH]cn1)C(=O)N[C@@H](CCCNC(=N)N)C(=O)N[C@@H](CO)C(=O)N[C@@H](Cc1ccccc1)C(=O)N[C@@H](CO)C(=O)N[C@@H](CC(=O)O)C(=O)N[C@@H](CCCCN)C(=O)N[C@@H](Cc1c[nH]cn1)C(=O)NCC(=O)N[C@@H](CC(C)C)C(=O)N[C@H](C(N)=O)[C@@H](C)O [r(5-29)galanin] (H-NSAGYLLGPHAIDNHRSFSDKHGLT-NH2; N-terminus and C-terminus assumed) | > 1000 | > 1000 | – |
| CC[C@H](C)[C@H](NC(=O)[C@H](C)NC(=O)[C@H](Cc1c[nH]cn1)NC(=O)[C@@H]1CCCN1C(=O)CNC(=O)[C@H](CC(C)C)NC(=O)[C@@H](N)CC(C)C)C(=O)N[C@@H](CC(=O)O)C(=O)N[C@@H](CC(N)=O)C(=O)N[C@@H](Cc1c[nH]cn1)C(=O)N[C@@H](CCCNC(=N)N)C(=O)N[C@@H](CO)C(=O)N[C@@H](Cc1ccccc1)C(=O)N[C@@H](CO)C(=O)N[C@@H](CC(=O)O)C(=O)N[C@@H](CCCCN)C(=O)N[C@@H](Cc1c[nH]cn1)C(=O)NCC(=O)N[C@@H](CC(C)C)C(=O)N[C@H](C(N)=O)[C@@H](C)O [r(10-29)galanin] (H-LLGPHAIDNHRSFSDKHGLT-NH2; N-terminus and C-terminus assumed) | > 1000 | > 1000 | – |
